Molecules are shown by their SMILES.

The experiment deals with T1, collagenase obtained from a culture of human synovial fibroblasts (Homo sapiens, UniProt P03956).
T1 construct: endogenous in cells; host or cells: human synovial fibroblasts in culture (conditioned medium)
T1 sequence (P03956 100-469): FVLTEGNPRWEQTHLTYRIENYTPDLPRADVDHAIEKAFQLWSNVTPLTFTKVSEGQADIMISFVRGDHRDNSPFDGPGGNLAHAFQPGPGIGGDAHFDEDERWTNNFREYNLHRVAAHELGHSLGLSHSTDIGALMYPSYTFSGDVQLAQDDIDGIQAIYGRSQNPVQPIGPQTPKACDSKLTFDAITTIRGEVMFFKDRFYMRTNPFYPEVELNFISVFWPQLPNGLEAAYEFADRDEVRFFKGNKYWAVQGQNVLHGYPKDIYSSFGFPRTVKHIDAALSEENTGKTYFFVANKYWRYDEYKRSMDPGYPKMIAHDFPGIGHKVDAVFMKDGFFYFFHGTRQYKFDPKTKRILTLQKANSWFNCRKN
Put plainly: in vitro collagenase inhibiting activity (14C-acetylated collagen type I from rat tail tendons as substrate, microtitre plate assay). It is filed as biochemical. The note with it: trypsin-activated collagenase from human synovial fibroblasts; 14C-acetylated collagen type I (rat tail tendons) substrate; concentration reducing substrate cleavage and solubilization to 50% of enzyme alone. As to the method: As mentioned earlier, the compounds of formula I and their pharmaceutically acceptable salts are collagenase inhibitors. […] Collagenase activity was measured using ^14 C-acetylated collagen type I from rat tail tendons as the substrate and employing the microtitre plate assay method of Johnson-Wint, B, Anal. Biochem. (1980), 104, 175. The IC50 is that concentration of a compound or salt of the invention in the enzyme digestion which reduces substrate cleavage and solubilization to 50% of that achieved by the enzyme alone.
The results obtained in the foregoing test with representative compounds and salts of the invention are compiled in Table I hereinafter: […]
For orientation: IC50 means the point on the concentration scale where inhibition reaches its midpoint. A high value points to weaker potency in that assay. On to `CC(C)C[C@@H](C(=O)N1CCSCC1)C(CN1C(=O)c2ccccc2C1=O)C(=O)NO` (single isomer, unassigned) [Compound B, 4-[2(R)-[1(R or S)-(Hydroxycarbamoyl)-2-phthalimidoethyl]-4-methylvaleryl]tetrahydro-1,4-thiazine], for which the IC50 worked out at 6 nM.

As to `CC(C)C[C@@H](C(=O)N1CCCCC1)C(Cn1c(=O)n(C)n(C)c1=O)C(=O)NO` (single isomer, unassigned) [Compound D, 1-[2(R)-[1(R or S)-(Hydroxycarbamoyl)-2-(1,2-dimethyl-3,5-dioxo-1,2,4-triazolidin-4-yl)ethyl]-4-methylvaleryl]piperidine], the 50% inhibitory concentration (IC50) was found to be 15 nM.

`CNC(=O)[C@@H]1CCCNN1C(=O)[C@H](CC(C)C)C(CN1C(=O)c2ccccc2C1=O)C(=O)NO` (single isomer, unassigned) [Compound F, Hexahydro-2-[2(R)-[1(R or S)-(hydroxycarbamoyl)-2-phthalimidoethyl]-4-methylvaleryl]-N-methyl-3(S)-pyridazinecarboxamide] registered a half-maximal inhibitory concentration (IC50) of 1.2 nM. This IC50 lies about 12-fold lower than the previous one.

Molecule `CC(C)C[C@@H](C(=O)N1CCC(O)CC1)C(CN1C(=O)N(C)C(C)(C)C1=O)C(=O)NO` (single isomer, unassigned) [Compound G, 1-[2(R)-[1(R or S)-(Hydroxycarbamoyl)-2-(3,4,4-trimethyl-2,5-dioxo-1-imidazolidinyl)ethyl]-4-methylvaleryl]-4-piperidinol] displayed a 50% inhibitory concentration (IC50) of 6.9 nM.

In the case of `CC(C)C[C@@H](C(=O)N1CCC(O)CC1)C(CN1C(=O)c2ccccc2C1=O)C(=O)NO` (single isomer, unassigned) [Compound C, 1-[2(R)-[1(R or S)-(Hydroxycarbamoyl)-2-phthalimidoethyl]-4-methylvaleryl]-4-piperidinol], the 50% inhibitory concentration (IC50) stood at 5 nM. With `CC(C)C[C@@H](C(=O)N1CCSCC1)C(CN1C(=O)CN(C)C1=O)C(=O)NO` (single isomer, unassigned) [Compound E, 4-[2(R)-[1(R or S)-(Hydroxycarbamoyl)-2-(3-methyl-2,5-dioxo-1-imidazolidinyl)ethyl]-4-methylvaleryl]tetrahydro-1,4-thiazine] the figure was 7 nM; with `CC(C)C[C@@H](C(=O)N1CCOCC1)C(CN1C(=O)c2ccccc2C1=O)C(=O)NO` (single isomer, unassigned) [Compound A, 4-[2(R)-[1(R or S)-(Hydroxycarbamoyl)-2-phthalimidoethyl]-4-methylvalery]morpholine], 10 nM.

The values above are taken from US5318964A, “Hydroxamic derivatives and pharmaceutical compositions” (Hoffmann-La Roche Inc., priority 1992, dated 1994).
